Reference: patent publication US20230181524A1, “PHARMACEUTICAL COMBINATION AND USE THEREOF” (NATURAL MEDICINE INSTITUTE OF ZHEJIANG YANGSHENGTANG CO., …, priority 2020, published 2023)
Several values for one entry are separate records, joined by “and”; a condition that tells them apart may be missing. Identical values can stand only once. d = 2'-deoxy (DNA)

Assays:
[1] = test system: HOS human osteosarcoma cells; test: Cell counts of drug combination administration (Trypan Blue), cell viability
Procedure: (§1) (1) Cells were plated in a 10 cm culture plate to grow a density of about 90%. The medium was removed, and the adherent cells were washed once with a PBS buffer. 1 mL of trypsin was added, and immediately discarded after mixing well. The cells were placed in the incubator and digested for about 5 min, and then about 10 ml of fresh medium was added. 10 μL was taken for counting.
(§2) (2) 10 μL of the well-mixed cells were taken and mixed into 10 μL of Trypan Blue solution, and counted.
(§3) (3) After counting, the cells were diluted to 1×10^5 cells/ml. The diluted cells were mixed well, and plated into a 24-well plate with 500 μL per well, i.e., about 50,000 cells per well.
(§4) (4) The cells plated in the 24-well plate were cultured for about 24h, and then drugs were added. […]
(§5) (5) After 24h of dosing, the medium was discarded. About 150 μL of trypsin was added and then discarded. The cells were digested for 5 min;
(§6) (6) After digestion, equivalent amounts of PBS were added into each well and mixed uniformly. Then, 10 μL/well of Trypan Blue solution was added and mixed uniformly. 10 μL of the well-mixed solution was taken and counted. In accordance with “Cell viability=Cell Count of Test Group/Cell Count of Control Group×100%”, the cell viability of various groups was calculated.
(§7) The coefficient of drug in interaction (CDI) was used to evaluate the nature of the interaction between the two drugs. The test groups were divided into the control group, the group of A drug, the group of B drug and the group of AB in combination, and used for detecting the cell viability in A, B and AB groups, respectively.

[2] = test system: 143B human osteosarcoma cells; test: as above
Procedure: as §1, §2, §3, §4, §5, §6, §7

[3] = test system: HEK293 cells; test: Cell viability compared with HEK293 cells (specificity); assay type: cell-based; conditions: in combination with ascorbic acid
Procedure: HEK293 cells, HOS human osteosarcoma cells, and 143B human osteosarcoma cells were subcultured in an incubator at 37° C., 5% CO2 using a RPMI-1640 medium containing 10% fetal bovine serum (FBS).
(§8) 10 μL was taken for counting.
(5) After 24h of dosing, the medium was discarded. […] The cells were digested for 5 min;

[4] = test system: 143B human osteosarcoma cells; test: siRNA against β-catenin transfection with or without sodium ascorbate, cell viability by cell count; assay type: cell-based; conditions: 143B cells
Excerpt: SiRNA is designed against the nucleotide sequence of β-catenin, and the siRNA codes are 484, 1202, and 1387, respectively. The sequences of sense strand and anti-sense strand of 484 are shown in SEQ ID NO. 1-2, respectively, and the sequences of sense strand and anti-sense strand of 1202 are shown in SEQ ID NO. 3-4, respectively, and the sequences of sense strand and anti-sense strand of 1387 are shown in SEQ ID NO. 5-6, respectively, wherein there are 2 T-bases at the 3′ end of each strand. 143B human osteosarcoma cells were subcultured at 37° C., 5% CO2 in an incubator with a RPMI-1640 medium containing 10% fetal bovine serum. The particular steps were as follows:
as §8
Then, the medium was discarded and replaced with 500 μL of serum-free medium.
(5) […] of siRNA was added into 50 μL of serum-free medium and mixed well.
(6) 1 μL of Lipofectamin 2000 transfection reagent was added into 50 μL of serum-free medium, mixed well, and stood at room temperature for 5 min.
(7) The siRNA diluted in Step (5) and the Lipofectamin 2000 reagent obtained in Step (6) were mixed, shaken well, and stood at room temperature for 20 min.
(8) 100 μL of the mixture obtained in Step (7) was added into the wells of the cell culture plate, cultured at 37° C. for 4h, and then the medium was replaced with normal medium. And an ascorbic acid solution with a concentration of 0.5 mM into the ascorbic acid group and the combination group.
(9) After 24h of dosing, the medium was discarded. […] The cells were digested for 5 min;

[5] = test system: HCT116 human colon cancer cells; test: Cell viability of single-drug administration, concentration gradient (CCK-8); assay type: cell-based; conditions: concentrations ranging from 0 to 100 μM
Procedure: as §8
(§9) The diluted cells were plated into a 96-well plate with 100 μL per well, i.e., about 10,000 cells per well. […]
(§10) (4) After 24h of dosing, 10 μL of CCK-8 solution was added. The cells were incubated in the incubator for 1-2 hours, and then measured at 490 nm using a microplate reader for the absorbance (OD value) of each well. The results were recorded. The relative cell viability was calculated as follows:
(§11) The cell viability of the control group obtained according the equation is 100%.

[6] = test system: MC38 human colon cancer cells; test: as above; assay type: cell-based; conditions: concentrations ranging from 0 to 100 μM
Procedure: as §8, §9, §10, §11

[7] = test system: MC38 human colon cancer cells; test: Cell viability, method of Example 1
Procedure: as §1, §2, §3
(§12) (4) The cells plated in the 24-well plate were cultured for about 24h, and then drugs were added. Various test groups comprise 5 groups as follows: the single-drug group of PKF118-310 (with a concentration of 0.1 μM), the group of ascorbic acid (with a concentration of 0.5 mM), the group of PKF118-310 (with a concentration of 0.1 μM) in combination with ascorbic acid (with a concentration of 0.5 mM); the control group that is a cell group to which only solvent DMSO is added; and the blank group that is a group to which no cell is added and only solvent (DMSO) is added.
as §5, §6
(§13) The inhibitory effect of PKF118-310 on the MC38 human colon cancer cells and the HCT116 human […] cancer cells was detected in accordance with the corresponding method of Example 1.

[8] = test system: 3AO human ovarian cancer cells; test: cells; conditions: Homo sapiens, 3AO, read-out: cell viability
Procedure: as §1, §2, §3, §12, §5, §6
(§14) The inhibitory effect of PKF118-310 on the SKOV3 human ovarian cancer cells and the 3AO human ovarian cancer cells was detected in accordance with the corresponding method of Example 1.

[9] = test system: SKOV3 human ovarian cancer cells; test: cells; conditions: Homo sapiens, SK-OV-3, read-out: cell viability
Procedure: as §1, §2, §3, §12, §5, §6, §14

[10] = test system: HCT116 human colon cancer cells; test: cells; conditions: Homo sapiens, HCT-116, read-out: cell viability
Procedure: as §1, §2, §3, §12, §5, §6, §13

[11] = test system: DB lymphoma cells; conditions: 2 mM ascorbic acid alone
Procedure: as §1, §2, §3, §12, §5, §6
For example, as for the DB lymphoma cells, the control group involves adding the solvent DMSO alone, the Vc group involves adding 2 mM of ascorbic acid, the low-dose PKF group involves adding 2 μM of PKF118-310, the low-dose PKF+Vc group involves adding 2 μM of PKF118-310 and 2 mM of ascorbic acid, the high-dose PKF group involves adding 5 μM of PKF118-310, and the high-dose PKF+the Vc group involves adding 5 μM of PKF118-310 and 2 mM of ascorbic acid.

[12] = alone; PKF118-310 0.7 mg/kg s.c. or ascorbate 1 g/kg i.v. every 3 days
Procedure: The day of the first injection was taken as Day 1, and then the body weight and the tumor size of the nude mice were examined and recorded: the tumor volume (mm^3)=Length (L)×Width (W)^2/2. The tumor was subject to Luciferin fluorescence imaging. That is, a 1 mg/mL of aqueous potassium D-fluorescein solution was prepared, and each mouse was intraperitoneally injected with 100 μL. After 10 min of injection, the mice were subject to Luciferin fluorescence imaging with a small animal live imaging instrument.

[13] = 20 μM in combination with 0.5 mM sodium ascorbate
[14] = 10 μM in combination with 0.5 mM ascorbic acid
[15] = administration of the siRNA alone
[16] = siRNA in combination with 0.5 mM sodium ascorbate
[17] = Homo sapiens, 143B, read-out: cell viability
[18] = Homo sapiens, MC-38, read-out: cell viability

`C[C@H]1[C@H]2N(C(=O)CN(C)N2C(=O)NCc2ccccc2)[C@@H](Cc2ccc(OP(=O)(O)O)cc2)C(=O)N1Cc1cccc2cccnc12` [PRI-724] showed a CDI value [1, 13] of 0.41, a cell viability [1, 13] of 74% and a cell viability ([1]; single-drug 20 μM) of 102%.

In the case of `OC1CCC(Oc2cccc3cnc(Nc4ccc5nc[nH]c5c4)nc23)CC1` (centres unmarked) [NCB-0846], the CDI value ([2]; 143B cells, 20 μM in combination with 0.5 mM sodium ascorbate) is reported as 0.13, the CDI value [1, 13] is reported as 0.16 and the “specificity of inhibition of tumor cell viability as compared with the HEK293 cells” value [3] is reported as “can specifically inhibit the cell viability of the 143B cells and the HOS cells”.

Work on `Cn1nc(-c2ccc(C(F)(F)F)cc2)nc2c(=O)n(C)c(=O)nc1-2` [Walrycin B] yielded a cell viability ([1]; 10 μM and 0.5 mM ascorbic acid) of 30%, a CDI value [1, 14] of 0.73 and a cell viability ([1]; single drug 10 μM) of 42%.

Compound “siRNA 1202: siRNA against β-catenin, sense and anti-sense strands SEQ ID NO. 3-4, 2 T-bases at the 3′ end of each strand (sense GCUCAUCAUACUGGCUAGU; antisense ACUAGCCAGUAUGAUGAGC; RNA, 3' dTdT, backbone not given here)” has a cell viability [4, 15] of 91%, a CDI value [4, 16] of 0.30 and a cell viability [4, 16] of 17%.

For `O=C1[O][Pt]2([NH][C@@H]3CCCC[C@H]3[NH]2)[O]C1=O` [oxaliplatin], the “effect on the cell viability” value [5] was “does not have significant effect on the cell viability” and the “effect on the cell viability” value [6] was “does not have significant effect on the cell viability”.

`CC(C)c1nc2c(=O)n(C)c(=O)nc-2n(C)n1` [compound C-2] showed a CDI value ([2]; 143B cells, 1 μM in combination with 0.5 mM ascorbic acid) of 0.37, a viability at 1 µM [2, 17] of 83% and a cell viability ([2]; human, 24 h, 1 μM) of 28%. The viability at 1 µM [7, 18] was 83%, the CDI value ([7]; MC38 cells, 1 μM in combination with 0.5 mM ascorbic acid) was 0.07 and the cell viability ([7]; human, 24 h, 1 μM) was 6%.

“siRNA 1387: siRNA against β-catenin, sense and anti-sense strands SEQ ID NO. 5-6, 2 T-bases at the 3′ end of each strand (sense GUCAACGUCUUGUUCAGAA; antisense UUCUGAACAAGACGUUGAC; RNA, 3' dTdT, backbone not given here)” gave a cell viability [4, 15] of 80%, a CDI value [4, 16] of 0.40 and a cell viability [4, 16] of 20%.

In the case of `CCC(C)c1nc2c(=O)n(C)c(=O)nc-2n(C(C)C)n1` (centres unmarked) [compound C-1], the CDI value ([2]; 143B cells, 5 μM in combination with 0.5 mM ascorbic acid) is reported as 0.40, the viability at 5 µM [2, 17] is reported as 50% and the cell viability ([2]; human, 24 h, 5 μM) is reported as 19%. It also gave a viability at 5 µM [7, 18] of 90%, a CDI value ([7]; MC38 cells, 5 μM in combination with 0.5 mM ascorbic acid) of 0.68 and a cell viability ([7]; human, 24 h, 5 μM) of 59%.

In the case of “siRNA 484: siRNA against β-catenin, sense and anti-sense strands SEQ ID NO. 1-2, 2 T-bases at the 3′ end of each strand (sense CCUUCACUCAAGAACAAGU; antisense ACUUGUUCUUGAGUGAAGG; RNA, 3' dTdT, backbone not given here)”, the cell viability [4, 15] is reported as 90%, the CDI value [4, 16] is reported as 0.46 and the cell viability [4, 16] is reported as 26%.

In the case of `Cc1nc2c(=O)n(C)c(=O)nc-2n(C)n1` [3-Methyltoxoflavin], the cell viability ([1]; 10 μM and 0.5 mM ascorbic acid) is reported as 54%, the CDI value [1, 14] is reported as 0.86 and the cell viability ([1]; single drug 10 μM) is reported as 63%.

In the case of `O=C1O[C@H]([C@@H](O)CO)C([O-])=C1O.[Na+]` [sodium ascorbate], the cell viability ([2]; 143B cells, 0.5 mM sodium ascorbate (ascorbic acid) alone) is reported as 54% and 80%, the cell viability ([2]; 143B cells, 0.5 mM sodium ascorbate (ascorbic acid) alone, listed as ascorbic acid) is reported as 96% and 92% and the cell viability ([1]; 0.5 mM sodium ascorbate (ascorbic acid) alone) is reported as 91% and 96% and 76%. For the same compound, the cell viability ([1]; 0.5 mM sodium ascorbate (ascorbic acid) alone, listed as ascorbic acid) was 98% and 99%, the viability at 500 µM ([4]; Homo sapiens, 0.5 mM sodium ascorbate alone (siRNA experiment)) was 63% and the viability at 500 µM [8] was 99%. The viability at 500 µM [9] was 97%, the viability at 500 µM ([7]; Homo sapiens, MC-38, read-out: cell viability, MC38 cells, 0.5 mM sodium ascorbate (ascorbic acid) alone) was 83% and the cell viability ([7]; MC38 cells, 0.5 mM sodium ascorbate (ascorbic acid) alone) was 96% and 98%. The viability at 500 µM [10] was 98%, the cell viability [11] was 91% and the “effect on the body weight of mice” value [12] was “no effect on the body weight of mice”.
